PMC5491650, “Structure-Activity Relationships of Pentacyclic Triterpenoids as Potent and Selective Inhibitors against Human Carboxylesterase 1” (Frontiers in Pharmacology, 2017)
Entries after “also recorded” stand apart in the source; their conditions may differ.

Legend:
Assay type in all cases: biochemical
[1] = target: T1, hCE1 (Homo sapiens, UniProt P23141); assay: hCE1 inhibition assay, DME hydrolysis in human liver microsomes; design: tissue Celsis (Shanghai, China); host or cells: human liver microsomes (HLM);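 note: carboxylesterase inhibition read out as probe hydrolysis, with DME serving as hCE1 substrate and DDAB as hCE2 substrate, in DMSO below 2% (V/V)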
T1 sequence (P23141 18-567): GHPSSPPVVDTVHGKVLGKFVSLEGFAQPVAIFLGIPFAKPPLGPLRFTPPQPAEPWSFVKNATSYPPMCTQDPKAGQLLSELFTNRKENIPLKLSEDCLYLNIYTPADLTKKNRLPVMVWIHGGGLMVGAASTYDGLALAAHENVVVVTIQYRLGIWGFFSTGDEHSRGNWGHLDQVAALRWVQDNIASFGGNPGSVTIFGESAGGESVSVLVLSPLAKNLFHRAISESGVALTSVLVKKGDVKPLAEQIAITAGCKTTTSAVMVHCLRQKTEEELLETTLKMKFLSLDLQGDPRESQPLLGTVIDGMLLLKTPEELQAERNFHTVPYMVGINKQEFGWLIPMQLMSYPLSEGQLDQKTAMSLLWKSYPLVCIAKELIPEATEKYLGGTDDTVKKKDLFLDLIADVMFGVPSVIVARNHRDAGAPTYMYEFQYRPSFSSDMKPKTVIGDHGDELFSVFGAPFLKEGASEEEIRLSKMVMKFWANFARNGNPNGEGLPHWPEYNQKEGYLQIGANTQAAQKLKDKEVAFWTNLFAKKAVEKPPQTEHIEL
Protocol: (§1) All fluorescence-based assays were performed on Synergy H^1 Hybrid Multi-Mode Microplate Reader (BioTek, USA).
(§2) The inhibitory effects toward CEs were assayed using DME and DDAB as the specific probe substrates for hCE1 and hCE2, respectively. […] Control incubations without BNPP were also performed. After incubation, ice-cold acetonitrile (equal volume of incubation mixture, 200 μL) was added to terminate the reaction. The mixture was then centrifuged at 20,000 g for 20 min at 4°C. All these compounds dissolved in DMSO, and the final concentration of DMSO was <2% (V/V). Aliquots of the supernatant were then taken for further microplate reader analyses. […] First, each of the potential esterase inhibitors was pre-incubated with HLM at 37°C for 10 min with shaking in microplate reader. Then DME was added to start the reaction. After incubation at 37°C for 10 min in a shaking bath, LDR (equal volume of incubation mixture, 50 μL) was added to terminate the reaction, and luminescence measurements were conducted as described above.

[2] = target: T2, hCE2 (Homo sapiens, UniProt O00748); assay: hCE2 inhibition assay, DDAB hydrolysis in human liver microsomes; conditions: DDAB as probe substrate, HLM; averages of at least three experiments; read-out: IC50 (hCE2)
T2 construct: tissue Celsis (Shanghai, China); host or cells: human liver microsomes (HLM)
T2 sequence (O00748 27-559): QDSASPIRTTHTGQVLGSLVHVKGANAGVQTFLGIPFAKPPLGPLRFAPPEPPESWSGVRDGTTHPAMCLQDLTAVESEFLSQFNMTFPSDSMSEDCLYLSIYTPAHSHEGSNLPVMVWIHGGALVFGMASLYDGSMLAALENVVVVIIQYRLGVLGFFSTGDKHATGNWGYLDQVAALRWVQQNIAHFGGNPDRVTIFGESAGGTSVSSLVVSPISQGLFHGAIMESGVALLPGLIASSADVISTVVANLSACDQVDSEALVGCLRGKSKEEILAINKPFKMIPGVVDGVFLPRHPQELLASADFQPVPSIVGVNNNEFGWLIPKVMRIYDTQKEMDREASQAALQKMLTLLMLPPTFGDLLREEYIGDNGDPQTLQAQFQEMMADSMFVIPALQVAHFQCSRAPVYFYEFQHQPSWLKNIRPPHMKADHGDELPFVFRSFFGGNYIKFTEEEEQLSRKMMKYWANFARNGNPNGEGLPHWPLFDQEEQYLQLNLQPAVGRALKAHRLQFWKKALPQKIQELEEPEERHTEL
Protocol: as §1, §2

[3] = target: T1, hCE1; assay: Inhibition of hCE1-mediated BMBT hydrolysis in HLMs; design: tissue Celsis (Shanghai, China); host or cells: human liver microsomes (HLM)
Protocol: The half maximal inhibitory concentration (IC50) of each compound was determined using various inhibitor concentrations under the same incubation conditions as mentioned above. The inhibition constant (Ki) values of compound 22 against hCE1 in HLM were determined using varied concentrations of DME in the presence or absence of each inhibitor. […] Dixon plot and Lineweaver-Burk plots were used to fit the data. The inhibition kinetic type was evaluated by determining the intersection point in the Dixon and Lineweaver-Burk plots. The second plots based on the slopes from Lineweaver-Burk plot vs. inhibitor concentrations were utilized to calculate each the inhibition constant (Ki) value (Wang et al., [2015]; Zhu et al., [2015], [2016]).
To this end, another optical probe substrate (BMBT) for hCE1 was used for further investigation on the inhibition behaviors of compound 22 (Liu et al., [2014]).

[4] = target: T1, hCE1; assay: Inhibition of DME hydrolysis by recombinant hCE1
Protocol: To further investigate the inhibitory behaviors of compound 22 on the catalytic activity of hCE1, the inhibition behaviors of this compound against hCE1 were performed. […] In addition, the inhibitory tendency and potency of compound 22 against DME-hydrolysis in both HLMs and hCE1 were much closed (Figure S1).

CC1CCC2(C(=O)O)CCC3(C)C(=CCC4C5(C)CCC(OC(=O)CCC(=O)O)C(C)(C)C5CCC43C)C2C1C (stereo not drawn) [Compound 22, 3β-O-(β-carboxypropionyl)-urs-12-en-28-oic acid]
Ki [1]: 12.6 nM | inhibition type against hCE1-mediated DME hydrolysis ([1]; HLMs, Lineweaver-Burk plots): competitive inhibitor; also recorded: competitive inhibition | IC50 ([1]; IC50 (hCE1), DME as probe substrate, HLM, averages of at least three experiments): 12 nM | IC50 ([1]; IC50 against hCE1, DME hydrolysis in HLM): 12.6 nM | Selectivity ([1]; calculated from IC50 (hCE2)/IC50 (hCE1) as printed): 6919.2 | selectivity over hCE2 ([1]; hCE1 versus hCE2, values of the text): 6,919 fold | Observed Log(IC50_hCE1) ([1]; log of the experimental IC50 in μM, used for 3D-QSAR): -1.921 μM | IC50 [2]: 83000 nM | IC50 [3]: 30.3 nM | Ki [3]: 35.5 nM | inhibition type against hCE1-mediated BMBT hydrolysis ([3]; HLMs, Lineweaver-Burk plot): non-competitive inhibitor | IC50 [4]: 9.2 nM
